Results: patent US20250318997A1, “COMPOSITIONS AND METHODS FOR PREVENTING DENTAL CARIES” (THE TRUSTEES OF THE UNIVERSITY OF PENNSYLVANIA, priority 2022, published 2025)
Each block holds one compound with its values, some of them ahead of it.

Columns and labels:
[1] = TMB colorimetric assay for peroxidase-like (catalytic) activity / ROS; conditions: for effect of the salt on the catalytic activity of Fer: salt 20 (or 30) μg/ml, Fer 20 μg of Fe/ml, pH 4.5, FIGS. 4A-4C
Text: To explore whether SnF2 could produce ROS, the 3,3′,5,5′-tetramethylbenzidine (TMB) colorimetric assay was used for peroxidase-like activity following a previously published protocol, with some modifications. TMB is a chromogenic compound that yields a blue color upon oxidation with an absorption peak at 652 nm in the presence of H2O2.
ROS measurement using 3,3′,5,5′-tetramethylbenzidine (TMB) assay: The catalytic activity of Fer+SnF2 was investigated by a colorimetric assay using TMB (Sigma-Aldrich) as a probe, which generates a blue color in the presence of H2O2 after reacting with ROS. Briefly, the stock solution of TMB was made in DMF (25 mg/ml). Fer (0.5 mg of Fe/ml) and SnF2 (0.5 mg/ml, Sigma-Aldrich) were incubated (separately or combined) at room temperature in 0.1 M of sodium acetate buffer (pH 4.5) for 1 h. Afterward, 40 μl of the testing sample (Fer, SnF2, or Fer+SnF2) and 4 μl of TMB (100 μg) were added into 922 μl of 0.1 M sodium acetate buffer (pH 4.5), and absorbance was recorded at 652 nm. Then, 34 μl of H2O2 (1%, v/v) was added. After 10 min additional incubation in the dark, catalytic activities was monitored at 652 nm. For the control, 40 μl of the buffer solution was taken instead of the testing sample. To examine the effect of DMSO, a quencher of hydroxyl radical (·OH), various amounts of DMSO (0-10%) were used. The effect of pH on the catalytic activity of the combined treatment of Fer+SnF2 was determined at three different pH values (4.5, 5.5, and 6.5), as described above. The comparison of the catalytic activity of Fer+NaF and Fer+SnF2 was also conducted using the same protocol as described above, except after adding H2O2, the reaction mixture was incubated only for 5 min.
Subsequently, 40 μl of the combined mixture of Fer (20 μg of Fe) and BaF2 (20 or 30 μg) and 4 μl of TMB (100 μg) were mixed into 922 μl of 0.1 M sodium acetate buffer (pH 4.5). Afterward, H2O2 (1%) was added. Finally, the absorbance of TMB was monitored at 652 nm after 5 min of incubation. In a similar way, the catalytic activity of SnCl2 (final concentration 20 μg/ml, Sigma-Aldrich) was also investigated. The effect of incubation time on the catalytic activity was investigated after incubating Fer and SnF2 for a predetermined time.
Additionally, the catalytic activity of the released iron and nanoparticle pellet was investigated at pH 4.5 via TMB assay.

S. mutans biofilm = assay: In vitro biofilm model on saliva-coated hydroxyapatite disc: viable cells (CFU) and biomass (dry weight); assay type: cell-based, Streptococcus mutans UA159
Protocol: Antibiofilm activity was evaluated using different concentrations of Fer and SnF2 in the presence of H2O2 using the saliva-coated hydroxyapatite disc (tooth enamel mimic) model in the presence of sucrose. Initially, Fer (1 mg of Fe/ml) was mixed with various concentrations of SnF2 (0-250 ppm of F), and the number of viable cells and biomass were determined.
Biofilms were formed using the saliva-coated hydroxyapatite disc (sHA) model as described elsewhere. Streptococcus mutans UA159, a proven virulent and well-characterized cariogenic pathogen, were grown in ultra-filtered (10 kDa, cutoff; Millipore, Billerica, MA) tryptone-yeast extract (UFTYE) broth at 37° C. and 5% CO2 to mid-exponential phase. Briefly, HA discs (surface area of 2.7±0.2 cm^2; Clarkson Chromatography Inc., South Williamsport, PA) were vertically suspended in 24-well plates using a custom-made wire disc holder and coated with filter-sterilized human saliva for 1 h at 37° C. Each sHA disc was inoculated with ˜2×10^5 CFU of S. mutans per ml in UFTYE containing 1% sucrose at 37° C. and 5% CO2. Topical treatment of Fer and SnF2 or vehicle control was performed twice daily for 10 min at 0, 6, 19, and 29 h. The culture medium was changed twice daily (at 19 h and 29 h). At the end of the experimental period (43 h), the biofilms were placed in 2.8 ml of H2O2 (1%, v/v) for 5 min. After H2O2 exposure, the biofilms were removed and homogenized via bath sonication followed by probe sonication (at an output of 7 W for 30 s). The homogenized suspension was serially diluted and plated onto blood agar plates using an automated EddyJet Spiral Plater (IUL, SA, Barcelona, Spain). The numbers of viable cells in each biofilm were calculated by counting CFU. The remaining suspension was centrifuged at 5500 g for 10 min, the resulting cell pellets were then washed, oven-dried, and weighed. SnF2 and NaF treatment groups were performed according to the same procedure.

[2] = Hydroxyl radical production by PL using coumarin; conditions: pH 4.5, H2O2; FIGS. 3F, 15
Protocol: Comparison of hydroxyl radical (·OH) production: ·OH generated by Fer and Fer+SnF2 in 0.1 M sodium acetate buffer (pH 4.5) was compared by PL technique using coumarin (Sigma-Aldrich) as a ·OH trapping molecule. First, stock solution of Fer (0.5 mg of Fe/ml) with or without SnF2 (0.5 mg/ml) was incubated in 0.1 M sodium acetate buffer (pH 4.5) for 1 h. Afterward, Fer (20 μg of Fe/ml) with or without SnF2 (20 μg/ml) was mixed with coumarin (0.1 mM) in a 10 mm path length cuvette, and then H2O2 (1%, v/v) was added to the reaction mixture to initiate the reaction. The PL intensity was recorded at 452 nm at different incubation times with an excitation wavelength of 332 nm. For the control, all the experimental conditions were the same, except that the testing samples were not used.

[3] = Stability of SnF2 in aqueous solution / sodium acetate buffer (photographs, UV-vis); conditions: SnF2 alone, 0.1 M sodium acetate buffer pH 5.5; FIG. 2B
Text: It is noteworthy that SnF2 has limited stability in aqueous solutions owing to its high susceptibility to hydrolysis and oxidation, requiring chemical additives (e.g., chelating agents) or water removal, which can reduce fluoride bioavailability. […] To further investigate the stability of SnF2 in the presence of Fer, SnF2 (250 ppm of F) was mixed with increasing amounts of Fer in 0.1 M sodium acetate buffer at different pH values.
The peak at 4.0-4.2 ppm (denoted as “a”) is attributed to the protons of the carboxymethyl moieties, as determined previously. […] Note that similar ^1H NMR studies of SnF2 and Fer are not possible due to the superparamagnetic nature of Fer interfering with ^1H NMR measurements.
The Fer formulation also contains mannitol, which is an antioxidant. Since antioxidants can prevent the oxidation of SnF2, SnF2 was added to various amounts of mannitol (1-10 mg/ml).

[4] = Stability of Fer/SnF2 with citric acid after 1 month at room temperature (photographs, hydrodynamic diameter); assay type: physicochemical
Protocol: FIG. 21 provides photographs of Fer+SnF2 when mixed with various amounts of citric acid after 1 month incubation at room temperature.

Structure (SMILES): [Ba+2].[F-].[F-] [BaF2, barium fluoride]
- effect of the salt on the catalytic activity of Fer [1]: Neither NaF nor BaF2 increased the catalytic activity of Fer

Structure (SMILES): [F-].[Na+] [NaF, sodium fluoride]
- effect of the salt on the catalytic activity of Fer [1]: Neither NaF nor BaF2 increased the catalytic activity of Fer

Structure (SMILES): [Cl][Sn][Cl] [SnCl2]
- effect of the salt on the catalytic activity of Fer [1]: enhanced the catalytic activity of Fer

Structure (SMILES): [F][Sn][F] [SnF2, stannous fluoride]
- ROS production / catalytic activity (TMB absorption at 652 nm) ([1]; pH 4.5, H2O2, FIGS. 3A, 3B): did not produce a noticeable amount of ROS
- effect of post-mixed SnF2 on the catalytic activity of Fer ([1]; post-mixed, not pre-mixed and incubated, FIG. 20): reduced the catalytic activity of Fer
- growth of S. mutans (bacterial viability) (S. mutans biofilm; 1000 ppm of F, compared with NaF, FIG. 9A): significantly inhibit the growth of S. mutans
- biomass (S. mutans biofilm; 1000 ppm of F, compared with NaF, FIG. 9B): reduce biomass
- biomass (S. mutans biofilm; SnF2 250 ppm of F alone, FIG. 1D): substantially reduce biomass
- ·OH production (PL intensity of 7-hydroxycoumarin at 452 nm) [2]: did not produce a noticeable amount of ·OH
- appearance of SnF2 solution [3]: Immediate aggregation

- amount of citric acid that improves the stability of the Fer/SnF2 formulation [4]: ≥ 125 µg/mL
Structure (SMILES): O=C(O)CC(O)(CC(=O)O)C(=O)O [citric acid]
